The values that follow are results of earlier work, collected in patent US20230158080A1 ([…], LLC, priority 2021, published 2023).

For one data set, the target named is androgen receptor (Homo sapiens, UniProt P10275). The following applies: stimulation of EPCs.
The test system of the next data set is EPC. The settings on record: different doses of R1881.
The test system of data set [1] is CD34+/F1k1+ and CD34+/VE-cadherin+ cells. The settings on record: castrated rats after testosterone supplementation.

Sequence of androgen receptor (P10275 whole entry): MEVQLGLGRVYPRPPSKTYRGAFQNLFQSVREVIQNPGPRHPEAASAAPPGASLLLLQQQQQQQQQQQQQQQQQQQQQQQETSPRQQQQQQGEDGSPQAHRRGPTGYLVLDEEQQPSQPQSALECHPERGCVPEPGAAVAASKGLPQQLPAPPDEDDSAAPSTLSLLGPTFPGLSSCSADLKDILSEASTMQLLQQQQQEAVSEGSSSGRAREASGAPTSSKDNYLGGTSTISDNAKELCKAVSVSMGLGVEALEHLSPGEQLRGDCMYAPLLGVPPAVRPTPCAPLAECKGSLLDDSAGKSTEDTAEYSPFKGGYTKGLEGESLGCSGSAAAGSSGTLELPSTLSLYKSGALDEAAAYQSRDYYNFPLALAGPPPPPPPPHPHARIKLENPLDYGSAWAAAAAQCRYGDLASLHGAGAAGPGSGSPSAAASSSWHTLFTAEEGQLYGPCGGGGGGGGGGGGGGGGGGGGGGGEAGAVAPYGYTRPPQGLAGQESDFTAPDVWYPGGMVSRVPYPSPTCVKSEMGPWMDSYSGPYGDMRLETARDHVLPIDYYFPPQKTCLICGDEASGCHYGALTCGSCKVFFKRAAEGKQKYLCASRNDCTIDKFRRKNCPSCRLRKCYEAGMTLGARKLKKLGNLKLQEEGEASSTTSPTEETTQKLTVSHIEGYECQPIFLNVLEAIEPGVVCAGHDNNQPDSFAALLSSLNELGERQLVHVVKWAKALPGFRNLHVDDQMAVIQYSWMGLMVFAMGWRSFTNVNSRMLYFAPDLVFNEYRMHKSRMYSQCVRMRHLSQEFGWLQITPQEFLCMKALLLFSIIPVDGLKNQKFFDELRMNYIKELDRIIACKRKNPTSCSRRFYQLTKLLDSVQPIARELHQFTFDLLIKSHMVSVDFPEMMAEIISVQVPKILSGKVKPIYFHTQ

Take `C[C@]1(O)CC[C@H]2[C@@H]3CCC4=CC(=O)CCC4=C3C=C[C@@]21C` [R1881, methyltrienolone]: the “androgen receptor translocation in the nucleus” value at androgen receptor is recorded as “caused androgen receptor translocation in the nucleus”. In the data set on EPC, the “EPC proliferation, migration and colony formation” value is reported as “dose-dependent increase”. In the case of `C[C@]12CC[C@H]3[C@@H](CCC4=CC(=O)CC[C@@]43C)[C@@H]1CC[C@@H]2O` [testosterone], the “percentage of EPC marker-positive cells in corpus cavernosum” value in data set [1] is given as “restored”.
